In patent US20050164259A1, “Sequences” (priority 2001, published 2005):

How the values were obtained:
[1] = target: T1, pyranosone dehydratase (PD) (Phanerodontia chrysosporium, UniProt P84193); test: Conversion of AF or glucosone by pyranosone dehydratase, monitored at 226 nm; assay type: biochemical, Phanerochaete chrysosporium; details: for OD 226 nm using substance as substrate: 22° C., 5.5 hours
T1 construct: The cell-free extract of Phanerochaete crysosporium was brought up to 55% ammonium sulphate saturation; endogenous in cells; host or cells: Phanerochaete chrysosporium ATCC 32629 and ATCC 24725; Native enzyme purified from cell-free extract by ammonium sulphate fractionation, then the procedure of Gabriel et al. 1993
T1 sequence (P84193 8-900 limits assumed): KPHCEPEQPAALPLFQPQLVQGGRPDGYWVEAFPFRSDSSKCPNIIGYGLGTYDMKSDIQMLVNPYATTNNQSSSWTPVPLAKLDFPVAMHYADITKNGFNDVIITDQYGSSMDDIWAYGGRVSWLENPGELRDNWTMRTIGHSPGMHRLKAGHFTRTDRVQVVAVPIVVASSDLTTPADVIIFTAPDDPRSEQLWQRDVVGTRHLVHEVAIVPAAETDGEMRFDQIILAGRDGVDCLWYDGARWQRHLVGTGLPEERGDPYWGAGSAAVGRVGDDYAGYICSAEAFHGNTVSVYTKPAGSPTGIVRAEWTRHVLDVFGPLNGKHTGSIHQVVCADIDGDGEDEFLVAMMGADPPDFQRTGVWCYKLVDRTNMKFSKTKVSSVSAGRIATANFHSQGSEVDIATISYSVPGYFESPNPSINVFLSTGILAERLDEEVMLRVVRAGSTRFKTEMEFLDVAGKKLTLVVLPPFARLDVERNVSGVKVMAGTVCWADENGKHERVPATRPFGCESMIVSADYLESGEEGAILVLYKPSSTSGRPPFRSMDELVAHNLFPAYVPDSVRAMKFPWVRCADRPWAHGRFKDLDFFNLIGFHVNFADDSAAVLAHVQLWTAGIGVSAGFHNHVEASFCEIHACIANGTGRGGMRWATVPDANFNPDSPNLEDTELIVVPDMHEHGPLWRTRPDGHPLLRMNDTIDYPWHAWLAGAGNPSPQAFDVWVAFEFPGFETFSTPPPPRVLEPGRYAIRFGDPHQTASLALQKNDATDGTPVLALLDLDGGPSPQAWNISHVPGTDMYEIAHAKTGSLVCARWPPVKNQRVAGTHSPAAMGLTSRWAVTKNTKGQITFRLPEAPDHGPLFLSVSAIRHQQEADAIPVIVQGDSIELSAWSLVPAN

sugar beet seeds = test: Laboratory germination of pelleted sugar beet seeds; assay type: in vivo; details: in words
Description: (§1) Seeds were pelleted with standard P1 pelleting mass with (1,2) or without (7,8)Thiram.
(§2) Inner coating: 0.3 gai/U microthecin as a 0.5% solution in water or • 14.7 gai/U Hymexazol. • 60 gai/U Imidacloprid.
(§3) Standard metallic green seed cover film.

Aphanomyces = test: Field emergence trial FEHCPO34 Aphanomyces, pelleted sugar beet seeds; assay type: in vivo; details: pellets containing the substance; in words
Description: Based on these findings, the efficiency of microthecin was further investigated in a field emergence trial. The trial was sown relatively late giving it a higher chance for presence of the pathogen Aphanomyces in the trial field.
as §1, §2, §3
Trial place Bukkehave, D K. (4 reps, 200 seeds/plot)

Aphanomyces cochlioides [2] = test: Example 4 screening for growth inhibition on agar plates; assay type: cell-based; details: very low concentrations; wells on PDA-agar plates, 3-5 days
Description: The effect of microthecin on the plant pathogenic fungi Pythium ultimum, Rhizoctonia solani and Aphanomyces cochlioides in vitro was investigated by screening for growth inhibition of the pathogens on agar-plates (FIGS. 6, 7, 8).
(§4) In each case, microthecin was dissolved in water and placed in wells in the periphery. An agar block containing the pathogen was placed in the centre. The pathogens were allowed to grow out on the PDA-agar plates for 3-5 days.

[3] = system: Pseudomonads (P. fluorescens DS96.578, P. mendocina DS98.124); test: Example 4 similar tests with other microorganisms; assay type: cell-based
Description: as §4

[4] = system: Bacillus (B. Pumilus DS96.734, B. megaterium DS98.124); test: Example 4 similar tests with other microorganisms; assay type: cell-based
Description: as §4

Pythium ultimum = test: Agar plate inhibition zone test (PDA), microthecin solutions; assay type: cell-based; details: judged after 1-2 days of growth
Description: (§5) Basic microthecin solution: 24 mg/ml Batch no. Mic20011016
(§6) All solutions were filtered through a 0.22 μm filter for sterilisation.
(§7) A circular plug (diameter 10 mm) of fresh mycelium was placed at the centre on a petri-dish (diameter 9 cm) containing PDA medium. (PDA=Potato dextrose agar Difco no. 213400). Wells with a diameter of 5 mm were cut along the periphery of the agar plate. In each well were placed 50 μl of a test solution. Alternatively, 20 μl of each test solution were placed directly on the agar along the periphery of the plate. Also, 50 μl of each test solution were placed directly on top of the fungal mycelium plug.
(§8) The agar plates were placed at room temperature in daylight, but protected from direct sunlight.
(§9) The reaction (inhibition zones) of the fungi to the test substance was judged as follows: […]

Aphanomyces cochlioides [5] = test: as above; assay type: cell-based; details: judged after 3-4 days of growth
Description: as §5, §6, §7, §8, §9

Cercospora beticola = test: as above; assay type: cell-based; details: judged after 3-4 weeks of growth
Description: as §5, §6, §7, §8, §9

Rhizoctonia solani = test: as above; assay type: cell-based; details: judged after 2-3 days of growth
Description: as §5, §6, §7, §8, §9

[6] = final substrate concentration 13.7 μg/ml reaction mixture
[7] = final substrate concentration 27.4 μg/ml reaction mixture
[8] = final substrate concentration 41.1 μg/ml reaction mixture
[9] = final substrate concentration 68.4 μg/ml reaction mixture
[10] = final substrate concentration 95.8 μg/ml reaction mixture
[11] = final substrate concentration 137 μg/ml reaction mixture
[12] = final substrate concentration 205 μg/ml reaction mixture

| Structure (SMILES) | Vmax with AF relative to glucosone ([1]; AF versus natural substrate glucosone) | OD 226 nm using substance as substrate [1, 6] | OD 226 nm using substance as substrate [1, 7] | OD 226 nm using substance as substrate [1, 8] | OD 226 nm using substance as substrate [1, 9] | OD 226 nm using substance as substrate [1, 10] | OD 226 nm using substance as substrate [1, 11] | OD 226 nm using substance as substrate [1, 12] | 4d>15mm germination (sugar beet seeds) | speed of germination in field emergence trials (Aphanomyces) | growth of Aphanomyces (Aphanomyces cochlioides [2]) | effect on Pseudomonads [3] | effect on the growth of Bacillus [4] | speed of laboratory germination (4d) (sugar beet seeds; inclusion in pellets) | final germination in field (Aphanomyces) | minimum inhibition concentration (mic) (Pythium ultimum) | minimum inhibition concentration (mic) (Aphanomyces cochlioides [5]) | minimum inhibition concentration (mic) (Cercospora beticola) | minimum inhibition concentration (mic) (Rhizoctonia solani) |
| --- | --- | --- | --- | --- | --- | --- | --- | --- | --- | --- | --- | --- | --- | --- | --- | --- | --- | --- | --- |
| O=C1CO[C@H](CO)[C@@H](O)[C@@H]1O [AF, 1,5-anhydro-D-fructose] | around 4.7 times | 0.308 | 0.534 | 0.76 | 1.246 | 1.764 | 2.43 | 2.943 |  |  |  |  |  |  |  |  |  |  |  |
| O=CC(=O)[C@@H](O)[C@H](O)[C@H](O)CO [Glucosone, D-arabino-hexos-2-ulose] |  | 0.069 | 0.104 | 0.141 | 0.238 | 0.323 | 0.484 | 0.634 |  |  |  |  |  |  |  |  |  |  |  |
| Cc1cc(O)no1 [Hymexazol] |  |  |  |  |  |  |  |  | low 4d>15mm germination | germinate relatively slow |  |  |  |  |  |  |  |  |  |
| O=C1C=CCOC1(O)CO (stereo not drawn) [microthecin] |  |  |  |  |  |  |  |  |  | comparable with pellets only containing Thiram | able to reduce the growth | slightly affected | no effect | decreases the speed of laboratory germination | high final germination | 480 ppm | 1200 ppm | 2400 ppm | 240 ppm |
